# Target: Acetylcholinesterase (Homo sapiens, UniProt P22303)
# Sequence (P22303 whole entry): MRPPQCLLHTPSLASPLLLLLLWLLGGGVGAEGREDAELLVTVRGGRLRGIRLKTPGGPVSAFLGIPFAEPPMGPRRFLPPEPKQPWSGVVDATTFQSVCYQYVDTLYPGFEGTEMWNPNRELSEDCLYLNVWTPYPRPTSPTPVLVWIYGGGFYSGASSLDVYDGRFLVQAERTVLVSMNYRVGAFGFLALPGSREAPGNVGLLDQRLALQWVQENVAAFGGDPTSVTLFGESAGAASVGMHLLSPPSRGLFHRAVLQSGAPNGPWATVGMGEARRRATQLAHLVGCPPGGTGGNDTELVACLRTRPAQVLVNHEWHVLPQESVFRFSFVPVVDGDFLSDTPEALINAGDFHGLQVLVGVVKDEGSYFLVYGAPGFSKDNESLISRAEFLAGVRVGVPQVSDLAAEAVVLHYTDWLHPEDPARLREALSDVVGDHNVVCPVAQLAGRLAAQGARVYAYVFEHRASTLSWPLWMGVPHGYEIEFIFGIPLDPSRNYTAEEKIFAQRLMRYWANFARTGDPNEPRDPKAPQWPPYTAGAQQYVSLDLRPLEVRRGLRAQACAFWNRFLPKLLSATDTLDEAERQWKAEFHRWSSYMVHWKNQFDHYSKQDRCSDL
# Description: Binding affinity to acetylcholinesterase (unknown origin)
row,Compound,Ki
1,COc1cc2c(cc1OC)C(=O)C(Oc1cccc(CN3CCOCC3)c1)C2 (stereo not drawn),0.793 µM
2,COc1cc2c(cc1OC)C(=O)C(Oc1ccc(CN(C)C)cc1)C2 (stereo not drawn),0.209 µM
3,O=C(Nc1ccc(OC(F)(F)F)cc1)N1CCCN(CCc2ccccc2)CC1,0.241 µM
4,COc1cc2c(cc1OC)C(=O)C(Oc1cccc(C(C)N(C)C)c1)C2 (stereo not drawn),0.4 µM
5,COc1cc2c(cc1OC)C(=O)C(Oc1cccc(CN(C)C)c1)C2 (stereo not drawn),1 µM
6,CSc1cccc(/N=C2\NC(=O)C(CC(=O)Nc3ccc(F)c(F)c3)S2)c1 (stereo not drawn),0.13 µM
7,COc1cc2c(cc1OC)C(=O)C(Cc1cccc(CN3CCCC3)c1)C2 (stereo not drawn),0.0223 µM
8,COc1cc2c(cc1OC)C(=O)C(Oc1ccc(CN3CCCCC3)cc1)C2 (stereo not drawn),0.403 µM
9,COc1cc2c(cc1OC)C(=O)/C(=C/c1cccc(CN(C)C)c1)C2,0.0622 µM
10,CCN(C)Cc1cccc(/C=C2\Cc3cc(OC)c(OC)cc3C2=O)c1,0.235 µM
11,COc1cc2c(cc1OC)C(=O)C(Oc1ccc(C(C)N3CCCC3)cc1)C2 (stereo not drawn),0.403 µM
12,COc1cc2c(cc1OC)C(=O)C(Oc1cccc(C(C)N3CCN(C)CC3)c1)C2 (stereo not drawn),0.0777 µM
13,CCN(CC)Cc1cccc(OC2Cc3cc(OC)c(OC)cc3C2=O)c1 (stereo not drawn),1.59 µM
14,CCN(CC)C(C)c1ccc(OC2Cc3cc(OC)c(OC)cc3C2=O)cc1 (stereo not drawn),1.33 µM
15,COc1cc2c(cc1OC)C(=O)C(Cc1ccc(CN3CCCC3)cc1)C2 (stereo not drawn),0.773 µM
16,O=C(CC1S/C(=N/c2ccc(C3CCCCC3)cc2)NC1=O)Nc1ccc(OC(F)(F)F)cc1 (stereo not drawn),0.897 µM
17,COc1cc2c(cc1OC)C(=O)/C(=C/c1ccc(CN3CCCCC3)cc1)C2,0.0952 µM
18,COc1cc2c(cc1OC)C(=O)/C(=C/c1cccc(CN3CCCCC3)c1)C2,0.0709 µM
19,CCN(CC)Cc1cccc(/C=C2\Cc3cc(OC)c(OC)cc3C2=O)c1,0.237 µM

row,Compound,Ki
1,COc1cc2c(cc1OC)C(=O)/C(=C/c1ccc(CN3CCCC3)cc1)C2,0.198 µM
2,CC(C)(C)c1ccc(/C(N)=N/OC(=O)c2cnn(-c3ccc([N+](=O)[O-])cc3)c2C(F)(F)F)cc1,0.521 µM
3,O=C(CN1CCN(Cc2ccccc2)CC1)Nc1ccc(C(F)(F)F)cc1Cl,0.0473 µM
4,COc1cc2c(cc1OC)C(=O)C(Oc1cccc(CN3CCN(C)CC3)c1)C2 (stereo not drawn),0.0621 µM
5,COc1cc2c(cc1OC)C(=O)C(Oc1cccc(CN3CCCCC3)c1)C2 (stereo not drawn),0.266 µM
6,COc1cc2c(cc1OC)C(=O)C(Cc1cccc(CN3CCCCC3)c1)C2 (stereo not drawn),0.0593 µM
7,COc1cc2c(cc1OC)C(=O)/C(=C/c1cccc(CN3CCCC3)c1)C2,0.127 µM
8,CC(CN1CCN(Cc2ccccc2)CC1)N(C(=O)c1cccc([N+](=O)[O-])c1)c1ccccn1 (stereo not drawn),0.0614 µM
9,Cc1c(S(=O)(=O)c2ccc(Cl)cc2)csc1C(=O)NC1CCN(Cc2ccccc2)CC1,0.0213 µM
10,COc1cc2c(cc1OC)C(=O)C(Oc1ccc(C(C)N3CCOCC3)cc1)C2 (stereo not drawn),0.217 µM
11,CCN(CC)C(C)c1cccc(OC2Cc3cc(OC)c(OC)cc3C2=O)c1 (stereo not drawn),0.865 µM
12,CCN(CC)Cc1ccc(/C=C2\Cc3cc(OC)c(OC)cc3C2=O)cc1,0.453 µM
13,COc1cc2c(cc1OC)C(=O)C(Oc1ccc(C(C)N3CCCCC3)cc1)C2 (stereo not drawn),0.106 µM
14,O=C(NC1CCN(Cc2ccccc2)CC1)c1ccc2c(c1)OCCCO2,0.0953 µM
15,O=c1c(Cl)c(N2CCN(c3ccc(C(F)(F)F)cn3)CC2)cnn1-c1c(Cl)cc(C(F)(F)F)cc1Cl,2.87 µM
16,COc1cc2c(cc1OC)C(=O)C(Oc1ccc(CN3CCN(C)CC3)cc1)C2 (stereo not drawn),0.0695 µM
17,N/C(=N\OC(=O)c1cnn(-c2ccc([N+](=O)[O-])cc2)c1C(F)(F)F)c1ccc(C(F)(F)F)cc1,2.07 µM
18,CCN(C)Cc1cccc(CC2Cc3cc(OC)c(OC)cc3C2=O)c1 (stereo not drawn),0.507 µM
19,COc1cc2c(cc1OC)C(=O)/C(=C/c1ccc(CN(C)C)cc1)C2,0.617 µM

row,Compound,Ki
1,CCN(C)Cc1ccc(/C=C2\Cc3cc(OC)c(OC)cc3C2=O)cc1,0.92 µM
2,COc1cc2c(cc1OC)C(=O)C(Oc1ccc(C(C)N3CCN(C)CC3)cc1)C2 (stereo not drawn),0.228 µM
3,CCN(CC)Cc1ccc(CC2Cc3cc(OC)c(OC)cc3C2=O)cc1 (stereo not drawn),1.04 µM
4,COc1cc2c(cc1OC)C(=O)C(Cc1cccc(CN(C)C)c1)C2 (stereo not drawn),0.525 µM
5,O=C(Nc1ccc(OC(F)(F)F)cc1)OC1CN(C(c2ccccc2)c2ccccc2)C1,0.0228 µM
6,O=[N+]([O-])c1ccc(OCC(O)CN2CCCN(c3nc4ccc(Cl)cc4s3)CC2)cc1 (stereo not drawn),0.263 µM
7,COc1cc2c(cc1OC)C(=O)C(Oc1cccc(C(C)N3CCCC3)c1)C2 (stereo not drawn),0.138 µM
8,COc1cc2c(cc1OC)C(=O)C(Cc1ccc(CN3CCCCC3)cc1)C2 (stereo not drawn),0.0738 µM
9,CCN(CC)Cc1cccc(CC2Cc3cc(OC)c(OC)cc3C2=O)c1 (stereo not drawn),0.0217 µM
10,CCN(C)Cc1ccc(CC2Cc3cc(OC)c(OC)cc3C2=O)cc1 (stereo not drawn),0.918 µM
11,COc1cc2c(cc1OC)C(=O)C(Oc1cccc(C(C)N3CCOCC3)c1)C2 (stereo not drawn),0.118 µM
12,CCN(CC)Cc1ccc(OC2Cc3cc(OC)c(OC)cc3C2=O)cc1 (stereo not drawn),1.34 µM
13,COc1cc2c(cc1OC)C(=O)C(Oc1ccc(CN3CCOCC3)cc1)C2 (stereo not drawn),0.514 µM
14,COc1cc2c(cc1OC)C(=O)C(Oc1cccc(C(C)N3CCCCC3)c1)C2 (stereo not drawn),0.0382 µM
15,COc1cc2c(cc1OC)C(=O)C(Oc1ccc(CN3CCCC3)cc1)C2 (stereo not drawn),0.257 µM
16,COc1ccc(C(=O)NC2CCN(Cc3c(F)cccc3Cl)CC2)cc1OC,0.0548 µM
17,N/C(=N\OC(=O)c1cnn(-c2ccc([N+](=O)[O-])cc2)c1C(F)(F)F)c1ccc(Cl)cc1,2.35 µM
18,COc1cc2c(cc1OC)C(=O)C(Oc1ccc(C(C)N(C)C)cc1)C2 (stereo not drawn),0.543 µM

# Target: T1, Acetylcholinesterase (Rattus norvegicus, UniProt P37136)
# T1 sequence (P37136 whole entry): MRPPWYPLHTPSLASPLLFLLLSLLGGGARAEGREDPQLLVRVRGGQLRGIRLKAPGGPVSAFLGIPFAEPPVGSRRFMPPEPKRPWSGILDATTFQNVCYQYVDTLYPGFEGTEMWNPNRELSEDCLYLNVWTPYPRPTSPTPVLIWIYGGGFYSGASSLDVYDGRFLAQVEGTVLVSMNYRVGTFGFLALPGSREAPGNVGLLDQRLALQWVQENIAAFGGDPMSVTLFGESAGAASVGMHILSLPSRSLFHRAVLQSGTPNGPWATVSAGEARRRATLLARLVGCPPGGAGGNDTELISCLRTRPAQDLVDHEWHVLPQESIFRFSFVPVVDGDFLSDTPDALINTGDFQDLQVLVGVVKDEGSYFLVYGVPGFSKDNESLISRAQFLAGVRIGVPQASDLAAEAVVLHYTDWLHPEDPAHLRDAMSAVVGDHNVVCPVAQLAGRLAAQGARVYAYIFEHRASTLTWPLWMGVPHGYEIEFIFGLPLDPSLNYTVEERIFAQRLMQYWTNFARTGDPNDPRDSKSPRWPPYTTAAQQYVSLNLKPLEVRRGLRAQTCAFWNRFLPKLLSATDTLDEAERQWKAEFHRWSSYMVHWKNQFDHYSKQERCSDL
# Description: Inhibition of acetylcholinesterase in Rattus norvegicus (rat) cortex by Ellman method
row,Compound,IC50
1,COc1cc2c(cc1OC)C(=O)C(Cc1ccc(CN3CCCC3)cc1)C2 (stereo not drawn),0.155 µM
2,COc1cc2c(cc1OC)C(=O)/C(=C/c1ccc(CN3CCCCC3)cc1)C2,0.102 µM
3,COc1cc2c(cc1OC)C(=O)/C(=C/c1cccc(CN3CCCCC3)c1)C2,0.162 µM
4,CCN(CC)Cc1cccc(/C=C2\Cc3cc(OC)c(OC)cc3C2=O)c1,0.447 µM
5,COc1cc2c(cc1OC)C(=O)/C(=C/c1cccc(CN3CCCC3)c1)C2,0.234 µM
6,CCN(C)Cc1ccc(/C=C2\Cc3cc(OC)c(OC)cc3C2=O)cc1,0.263 µM
7,COc1cc2c(cc1OC)C(=O)C(Cc1ccc(CN3CCCCC3)cc1)C2 (stereo not drawn),0.123 µM

# Reference: ChEMBL document CHEMBL3046949, “New molecular scaffolds for the design of Alzheimers acetylcholinesterase inhibitors identified using ligand- and receptor-based virtual screening” (Med Chem Res, 2013)
